Structures are written as SMILES. Where two headings read alike, the source gives them in different places.

Common to all, as to format: biochemical
In one assay the target is DPP4 (Homo sapiens, UniProt P27487). The assay is described as follows: DPP4 inhibition, fluorogenic substrate H-Gly-Pro-AMC. Also noted: purchased R&D Systems.
In another assay the target is T1, Recombinant human FAP (Homo sapiens, UniProt Q12884).
T1 construct: purchased R&D systems
T1 sequence (Q12884 1-760): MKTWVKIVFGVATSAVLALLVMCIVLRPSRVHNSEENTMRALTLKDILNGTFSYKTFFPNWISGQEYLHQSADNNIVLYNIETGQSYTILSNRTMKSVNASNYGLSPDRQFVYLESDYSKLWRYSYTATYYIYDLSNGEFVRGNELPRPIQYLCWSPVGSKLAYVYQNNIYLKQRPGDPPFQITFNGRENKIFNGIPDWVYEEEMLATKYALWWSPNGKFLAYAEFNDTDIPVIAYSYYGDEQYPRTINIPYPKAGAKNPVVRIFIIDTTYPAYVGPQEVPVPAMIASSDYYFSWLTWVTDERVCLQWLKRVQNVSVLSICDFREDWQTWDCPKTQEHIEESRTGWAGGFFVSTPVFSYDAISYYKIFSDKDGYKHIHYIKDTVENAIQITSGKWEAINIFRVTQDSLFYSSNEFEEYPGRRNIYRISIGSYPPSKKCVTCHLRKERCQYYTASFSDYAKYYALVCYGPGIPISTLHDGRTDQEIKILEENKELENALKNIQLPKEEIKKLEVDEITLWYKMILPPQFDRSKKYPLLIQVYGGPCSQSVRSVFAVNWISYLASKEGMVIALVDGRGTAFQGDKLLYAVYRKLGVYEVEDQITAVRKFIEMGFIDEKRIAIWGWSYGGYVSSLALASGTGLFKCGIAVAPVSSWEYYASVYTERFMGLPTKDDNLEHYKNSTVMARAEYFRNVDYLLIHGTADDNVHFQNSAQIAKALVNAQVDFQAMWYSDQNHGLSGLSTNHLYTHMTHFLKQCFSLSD
Description: FAP inhibition, fluorogenic substrate Z-Gly-Pro-AMC. The essentials:
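Recombinant human FAP, 10 ng per reaction, in 50 mM Tris pH 7.5 with 1 M NaCl and 1 mg/ml BSA at 25° C; substrate Z-Gly-Pro-AMC, ≤0.1% DMSO. AMC fluorescence read at ex 380/em 460 nm; % signal-rate decrease vs no-inhibitor control, 8-point curves fitted to a four-parameter logistic for IC50.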

The target of a further assay is T2, recombinant human DPP8 (Homo sapiens, UniProt Q6V1X1).
T2 construct: purchased PBS Bioscience
T2 sequence (Q6V1X1 whole entry): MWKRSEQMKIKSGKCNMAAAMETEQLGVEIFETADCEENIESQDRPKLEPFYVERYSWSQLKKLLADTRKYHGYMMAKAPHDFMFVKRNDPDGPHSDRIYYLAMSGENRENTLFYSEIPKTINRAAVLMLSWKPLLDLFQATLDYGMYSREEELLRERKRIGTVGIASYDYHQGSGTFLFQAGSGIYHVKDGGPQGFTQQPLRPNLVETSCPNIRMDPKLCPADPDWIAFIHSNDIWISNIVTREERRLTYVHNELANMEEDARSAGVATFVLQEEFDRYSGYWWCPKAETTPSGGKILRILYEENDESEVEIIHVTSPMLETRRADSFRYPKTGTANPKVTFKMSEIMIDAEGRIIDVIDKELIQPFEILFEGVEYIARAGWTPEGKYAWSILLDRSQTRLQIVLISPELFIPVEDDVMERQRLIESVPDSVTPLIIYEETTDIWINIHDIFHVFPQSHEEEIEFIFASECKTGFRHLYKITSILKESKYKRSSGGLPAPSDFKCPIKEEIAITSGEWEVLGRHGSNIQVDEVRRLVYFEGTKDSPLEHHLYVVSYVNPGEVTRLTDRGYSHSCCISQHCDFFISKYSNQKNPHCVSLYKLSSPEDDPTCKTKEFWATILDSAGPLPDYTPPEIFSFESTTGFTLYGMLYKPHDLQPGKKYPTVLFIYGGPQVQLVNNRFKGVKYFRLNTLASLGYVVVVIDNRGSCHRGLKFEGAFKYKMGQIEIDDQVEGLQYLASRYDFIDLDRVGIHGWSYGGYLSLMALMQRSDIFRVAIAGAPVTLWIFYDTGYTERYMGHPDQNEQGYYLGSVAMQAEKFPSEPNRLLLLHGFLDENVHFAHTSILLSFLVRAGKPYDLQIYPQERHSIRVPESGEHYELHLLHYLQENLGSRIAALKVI
Description: DPP8 inhibition, fluorogenic substrate Z-Ala-Pro-AMC. The essentials: (§1)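 Enzyme per reaction: 50 ng DPP9, 20 ng DPP8, 10 ng each DPP7 and PREP. Compounds were serially diluted (8 points, up to 0.5% DMSO) and incubated at 25 °C.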

The target of a further assay is T3, recombinant human PREP (Homo sapiens, UniProt P48147).
T3 construct: purchased R&D System
T3 sequence (P48147 1-710): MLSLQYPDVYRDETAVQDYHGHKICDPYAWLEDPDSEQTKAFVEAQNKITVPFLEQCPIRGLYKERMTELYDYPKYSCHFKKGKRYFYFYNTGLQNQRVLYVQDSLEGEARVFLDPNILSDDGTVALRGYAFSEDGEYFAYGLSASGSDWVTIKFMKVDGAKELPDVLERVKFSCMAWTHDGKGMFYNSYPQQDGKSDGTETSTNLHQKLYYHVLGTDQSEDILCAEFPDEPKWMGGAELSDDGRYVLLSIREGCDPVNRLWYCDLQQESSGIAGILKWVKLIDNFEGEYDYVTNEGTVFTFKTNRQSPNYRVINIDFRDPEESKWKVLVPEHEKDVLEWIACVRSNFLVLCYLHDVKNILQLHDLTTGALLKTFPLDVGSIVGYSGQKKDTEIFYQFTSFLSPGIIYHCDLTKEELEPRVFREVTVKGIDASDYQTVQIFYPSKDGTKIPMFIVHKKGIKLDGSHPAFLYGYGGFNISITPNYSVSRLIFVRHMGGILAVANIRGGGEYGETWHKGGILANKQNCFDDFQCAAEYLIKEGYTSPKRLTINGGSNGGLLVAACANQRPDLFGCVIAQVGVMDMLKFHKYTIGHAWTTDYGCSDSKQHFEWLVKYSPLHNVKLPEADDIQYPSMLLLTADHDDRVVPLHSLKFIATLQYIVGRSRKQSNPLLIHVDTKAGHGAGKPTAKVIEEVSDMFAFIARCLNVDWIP
Description: PREP inhibition, fluorogenic substrate Z-Gly-Pro-AMC. Particulars: Inhibitory Activity (IC50, nM) PREP. The essentials:
as §1

Another assay addresses T4, recombinant human DPP7 (Homo sapiens, UniProt Q9UHL4).
T4 construct: purchased R&D Systems
The assay is described as follows: DPP7 inhibition, fluorogenic substrate Lys-Pro-AMC. The essentials: as §1

The target in the next assay is T5, recombinant human DPP9 (Homo sapiens, UniProt Q86TI2).
T5 construct: purchased R&D Systems
T5 sequence (Q86TI2 whole entry): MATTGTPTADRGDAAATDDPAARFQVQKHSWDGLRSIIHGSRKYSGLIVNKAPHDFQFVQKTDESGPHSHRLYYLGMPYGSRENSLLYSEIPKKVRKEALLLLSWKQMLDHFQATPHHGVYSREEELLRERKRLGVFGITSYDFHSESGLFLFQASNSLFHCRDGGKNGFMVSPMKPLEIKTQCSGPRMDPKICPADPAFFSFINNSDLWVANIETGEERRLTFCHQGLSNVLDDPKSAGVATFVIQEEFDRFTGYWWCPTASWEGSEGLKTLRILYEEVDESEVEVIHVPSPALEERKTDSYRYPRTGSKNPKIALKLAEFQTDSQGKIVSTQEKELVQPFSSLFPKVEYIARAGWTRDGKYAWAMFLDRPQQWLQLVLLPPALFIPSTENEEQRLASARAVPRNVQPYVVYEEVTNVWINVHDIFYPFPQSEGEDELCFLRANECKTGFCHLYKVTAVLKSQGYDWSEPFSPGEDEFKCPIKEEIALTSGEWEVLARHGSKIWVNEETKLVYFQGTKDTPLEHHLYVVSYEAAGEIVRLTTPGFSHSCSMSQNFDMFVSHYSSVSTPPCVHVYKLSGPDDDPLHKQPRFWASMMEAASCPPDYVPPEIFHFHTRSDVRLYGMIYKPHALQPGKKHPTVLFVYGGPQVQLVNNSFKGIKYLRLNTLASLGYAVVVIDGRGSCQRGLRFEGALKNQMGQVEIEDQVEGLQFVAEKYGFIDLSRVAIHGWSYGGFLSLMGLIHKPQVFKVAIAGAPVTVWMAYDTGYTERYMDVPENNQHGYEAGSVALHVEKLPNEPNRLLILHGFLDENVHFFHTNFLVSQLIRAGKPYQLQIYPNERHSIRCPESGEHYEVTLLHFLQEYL
Description: DPP9 inhibition, fluorogenic substrate H-Gly-Pro-AMC. The essentials:
as §1

[1] abbreviates: recombinant human FAP, substrate Z-Gly-Pro-AMC.
[2] abbreviates: 25° C., H-Gly-Pro-AMC substrate.
[3] abbreviates: 25° C., Z-Gly-Pro-AMC substrate.
[4] abbreviates: 25° C., Z-Ala-Pro-AMC substrate.

DPP4, sequence (P27487 whole entry): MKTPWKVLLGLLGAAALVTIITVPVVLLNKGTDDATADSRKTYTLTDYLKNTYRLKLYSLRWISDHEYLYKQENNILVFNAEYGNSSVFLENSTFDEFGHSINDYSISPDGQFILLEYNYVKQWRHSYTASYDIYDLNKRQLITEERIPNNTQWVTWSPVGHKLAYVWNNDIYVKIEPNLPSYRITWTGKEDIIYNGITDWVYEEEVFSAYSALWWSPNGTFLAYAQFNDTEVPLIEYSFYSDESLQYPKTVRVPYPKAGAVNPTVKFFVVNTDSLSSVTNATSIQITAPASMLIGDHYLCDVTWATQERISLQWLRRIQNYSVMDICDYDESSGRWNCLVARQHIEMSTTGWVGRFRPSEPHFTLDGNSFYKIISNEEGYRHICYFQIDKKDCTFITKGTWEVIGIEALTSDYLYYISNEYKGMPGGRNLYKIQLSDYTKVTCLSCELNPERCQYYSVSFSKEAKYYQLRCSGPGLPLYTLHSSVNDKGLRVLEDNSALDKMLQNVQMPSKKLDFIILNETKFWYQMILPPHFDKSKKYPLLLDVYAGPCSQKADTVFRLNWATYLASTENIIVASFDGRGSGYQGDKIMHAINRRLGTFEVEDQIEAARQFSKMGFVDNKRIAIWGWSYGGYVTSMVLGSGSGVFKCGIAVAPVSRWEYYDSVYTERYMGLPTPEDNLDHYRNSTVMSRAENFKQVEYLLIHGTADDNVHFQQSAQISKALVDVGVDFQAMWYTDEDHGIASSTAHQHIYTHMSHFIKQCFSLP

Usually IC50 stands for the midpoint of a concentration-inhibition curve. With `CN(c1cccc2cnccc12)C1CCN(CC(=O)N2CCC[C@H]2C#N)CC1` [Example 313, (2S)-1-[2-[4-[5-isoquinolyl(methyl)amino]-1-piperidyl]acetyl]pyrrolidine-2-carbonitrile], the half-inhibitory concentration (IC50) is over 10 µM at DPP4 (recombinant human DPP4); 0.0739 µM on Recombinant human FAP (setting [1]); over 100 µM at recombinant human DPP8 (recombinant human DPP8); 9360 nM on recombinant human PREP (recombinant human PREP); over 100 µM at recombinant human DPP7 (recombinant human DPP7); 13.7 µM on recombinant human DPP9 (recombinant human DPP9).
`N#C[C@@H]1C[C@H](F)CN1C(=O)CN1CCC(Oc2cccc3cnccc23)CC1` [Example 421, (2S,4S)-4-fluoro-1-[2-[4-(5-isoquinolyloxy)-1-piperidyl]acetyl]pyrrolidine-2-carbonitrile]: the IC50 on DPP4 (recombinant human DPP4) was 7.53 µM; on Recombinant human FAP (setting [1]), 0.0025 µM; on recombinant human DPP8 (recombinant human DPP8), 1.58 µM; on recombinant human PREP (recombinant human PREP) it was 2610 nM; on recombinant human DPP7 (recombinant human DPP7), over 100 µM; on recombinant human DPP9 (recombinant human DPP9) it was 4.16 µM.
On to `COc1ccc(NC2CCN(CC(=O)N3C[C@@H](F)C[C@H]3C#N)CC2)c2cccnc12` [Example 135, (2S,4S)-4-fluoro-1-(2-(4-((8-methoxyquinolin-5-yl)amino)piperidin-1-yl)acetyl)pyrrolidine-2-carbonitrile], for which the IC50 on DPP4 (setting [2]) came to 4.14 µM; on Recombinant human FAP (setting [3]), 0.00347 µM; at recombinant human DPP8 (setting [4]), 5.78 µM; on recombinant human PREP (setting [3]) it was 4990 nM; on recombinant human DPP7, 1.02 µM; on recombinant human DPP9 (setting [2]), 3.44 µM.
For `N#C[C@@H]1C[C@H](F)CN1C(=O)CN1CCC(Oc2cc(C(F)(F)F)nc3ccc(F)cc23)CC1` [Example 413, (2S,4S)-4-fluoro-1-[2-[4-[[6-fluoro-2-(trifluoromethyl)-4-quinolyl]oxy]-1-piperidyl]acetyl]pyrrolidine-2-carbonitrile], the IC50 was over 10 µM at DPP4 (recombinant human DPP4); 0.003 µM on Recombinant human FAP (setting [1]); 18.2 µM on recombinant human DPP8 (recombinant human DPP8); 26500 nM on recombinant human PREP (recombinant human PREP); over 100 µM on recombinant human DPP7 (recombinant human DPP7); over 100 µM at recombinant human DPP9 (recombinant human DPP9).
Turning to `N#C[C@@H]1C[C@H](F)CN1C(=O)CN1CCC(Oc2ccc3cnccc3c2)CC1` [Example 422, (2S,4S)-4-fluoro-1-[2-[4-(6-isoquinolyloxy)-1-piperidyl]acetyl]pyrrolidine-2-carbonitrile], the IC50 on DPP4 (recombinant human DPP4) is over 10 µM; at Recombinant human FAP (setting [1]), 0.0114 µM; at recombinant human DPP8 (recombinant human DPP8) it was 6.42 µM; on recombinant human PREP (recombinant human PREP), 1410 nM; at recombinant human DPP7 (recombinant human DPP7) it was 1.22 µM; at recombinant human DPP9 (recombinant human DPP9) it was 10.3 µM.
On to `N#C[C@@H]1CCCN1C(=O)CN1CC[C@H](NC(=O)c2coc3ccccc23)C1` [Example 37, N—((S)-1-(2-((S)-2-cyanopyrrolidin-1-yl)-2-oxoethyl)pyrrolidin-3-yl)benzofuran-3-carboxamide], for which the IC50 on DPP4 (setting [2]) was over 1 µM; on Recombinant human FAP (setting [3]) it was 0.0118 µM; on recombinant human DPP8 (setting [4]), 72.8 µM; at recombinant human PREP (setting [3]), 8260 nM; at recombinant human DPP7, 5.17 µM; on recombinant human DPP9 (setting [2]), over 100 µM.
Turning to `N#C[C@@H]1CCCN1C(=O)CN1CC[C@H](Oc2ccc(Cl)c3cccnc23)C1` [Example 81, (S)-1-(2-((S)-3-((5-chloroquinolin-8-yl)oxy)pyrrolidin-1-yl)acetyl)pyrrolidine-2-carbonitrile], the IC50 on DPP4 (setting [2]) was over 1 µM; on Recombinant human FAP (setting [3]) it was 0.0076 µM; on recombinant human DPP8 (setting [4]) it was 27.4 µM; at recombinant human PREP (setting [3]), 3930 nM; on recombinant human DPP7, 5.94 µM; at recombinant human DPP9 (setting [2]), 84.9 µM.
For `Cc1cncc2cccc(NC3CCN(CC(=O)N4C[C@@H](F)C[C@H]4C#N)CC3)c12` [Example 354, (2S,4S)-4-fluoro-1-[2-[4-[(4-methyl-5-isoquinolyl)amino]-1-piperidyl]acetyl]pyrrolidine-2-carbonitrile], the IC50 stood at 2.08 µM at DPP4 (recombinant human DPP4); 0.0089 µM on Recombinant human FAP (setting [1]); 1.78 µM at recombinant human DPP8 (recombinant human DPP8); 2820 nM on recombinant human PREP (recombinant human PREP); 0.428 µM at recombinant human DPP7 (recombinant human DPP7); 4.94 µM at recombinant human DPP9 (recombinant human DPP9).
As for `N#C[C@@H]1CCCN1C(=O)CN1CC[C@H](Oc2cccc3[nH]c(=O)ccc23)C1` [Example 75, (S)-1-(2-((S)-3-((2-oxo-1,2-dihydroquinolin-5-yl)oxy)pyrrolidin-1-yl)acetyl)pyrrolidine-2-carbonitrile], the IC50 against DPP4 (setting [2]) was over 1 µM; at Recombinant human FAP (setting [3]), 0.00984 µM; on recombinant human DPP8 (setting [4]), 93.2 µM; on recombinant human PREP (setting [3]) it was 5250 nM; on recombinant human DPP7 it was 0.814 µM; at recombinant human DPP9 (setting [2]) it was over 100 µM.
For `COc1cnc2cccc(N[C@H]3CCN(CC(=O)N4C[C@@H](F)C[C@H]4C#N)C3)c2c1` [Example 254, (2S,4S)-4-fluoro-1-[2-[(3S)-3-[(3-methoxy-5-quinolyl)amino]pyrrolidin-1-yl]acetyl]pyrrolidine-2-carbonitrile], the IC50 on DPP4 (recombinant human DPP4) worked out at 4.71 µM; on Recombinant human FAP (setting [1]), 0.0021 µM; at recombinant human DPP8 (recombinant human DPP8), 12.2 µM; at recombinant human PREP (recombinant human PREP), 275 nM; on recombinant human DPP7 (recombinant human DPP7) it was 1.4 µM; at recombinant human DPP9 (recombinant human DPP9), 13.1 µM.
Consider `N#C[C@@H]1C[C@H](F)CN1C(=O)CN1CCC(Nc2cccc3sccc23)CC1` [Example 336, (2S,4S)-1-(2-(4-(benzo[b]thiophen-4-ylamino)piperidin-1-yl)acetyl)-4-fluoropyrrolidine-2-carbonitrile], for which the IC50 at DPP4 (recombinant human DPP4) came out at 7.39 µM; at Recombinant human FAP (setting [1]) it was 0.0593 µM; at recombinant human DPP8 (recombinant human DPP8), 11.5 µM; on recombinant human PREP (recombinant human PREP), 8500 nM; at recombinant human DPP7 (recombinant human DPP7), 1.19 µM; at recombinant human DPP9 (recombinant human DPP9), 6.52 µM.
With `COc1ccc2c(O[C@H]3CCN(CC(=O)N4CCC[C@H]4C#N)C3)ccnc2c1` [Example 100, (S)-1-(2-((S)-3-((7-methoxyquinolin-4-yl)oxy)pyrrolidin-1-yl)acetyl)pyrrolidine-2-carbonitrile], the IC50 was over 1 µM at DPP4 (setting [2]); 0.0135 µM on Recombinant human FAP (setting [3]); 73.8 µM on recombinant human DPP8 (setting [4]); 2490 nM on recombinant human PREP (setting [3]); 1.15 µM at recombinant human DPP7; over 100 µM on recombinant human DPP9 (setting [2]).
For `N#C[C@@H]1CCCN1C(=O)CN1CC[C@H](Nc2cccc3sccc23)C1` [Example 20, (S)-1-(2-((S)-3-(benzo[b]thiophen-4-ylamino)pyrrolidin-1-yl)acetyl)pyrrolidine-2-carbonitrile], the IC50 was over 1 µM against DPP4 (setting [2]); 0.00453 µM on Recombinant human FAP (setting [3]); 23.1 µM at recombinant human DPP8 (setting [4]); 7230 nM on recombinant human PREP (setting [3]); 2.12 µM on recombinant human DPP7; 69.1 µM at recombinant human DPP9 (setting [2]).
Regarding `N#C[C@@H]1C[C@H](F)CN1C(=O)CN1CC[C@H](NC(=O)c2coc3cc(F)ccc23)C1` [Example 29, N—((S)-1-(2-((2S,4S)-2-cyano-4-fluoropyrrolidin-1-yl)-2-oxoethyl)pyrrolidin-3-yl)-6-fluorobenzofuran-3-carboxamide], the IC50 against DPP4 (setting [2]) was over 100 µM; on Recombinant human FAP (setting [3]) it was 0.00622 µM; at recombinant human DPP8 (setting [4]) it was 28.7 µM; on recombinant human PREP (setting [3]), 6170 nM; on recombinant human DPP7 it was 0.728 µM; at recombinant human DPP9 (setting [2]) it was 17.5 µM.

The record behind these values is patent US11655235B2, “Pyrrolidine and piperidine compounds” (YUHAN CORPORATION, priority 2019, dated 2023).
